Measurements taken from ChEMBL document CHEMBL6121007, “Design, synthesis and evaluation of pyrimidine derivatives as sedative-hypnotic agents” (Eur J Med Chem, 2025).
Active and inactive are the calls of the source. The calls are words filed in the database; no cut-off is given here.

Key:
[1] = Upregulation of Rap1 signaling pathway related genes in hypothalamus of mouse at 2.5 mg/kg, ip measured after 30 mins by KEGG enrichment analysis relative to control; assay type: functional; settings: 0.5 h
Mus musculus [2] = experiment: Sedative-hypnotic activity in mouse assessed as decrease in grip strength score at 0.1 to 2.5 mg/kg, ip administrated as single dose and measured after 30 mins by grip strength test; assay type: functional, organism-based; settings: dose 0.1-2.5 mg/kg
Mus musculus [3] = experiment: Sedative-hypnotic activity in pentobarbital-induced mouse assessed as decrease in sleep latency at 0.5 to 2.5 mg/kg, ip administrated as single dose; assay type: functional, organism-based; settings: dose 0.5-2.5 mg/kg
Mus musculus [4] = experiment: Upregulation of apoptosis related genes in hypothalamus of mouse at 2.5 mg/kg, ip measured after 30 mins by KEGG enrichment analysis relative to control; assay type: functional; settings: 0.5 h
Mus musculus [5] = experiment: Upregulation of glycine metabolism related genes in hypothalamus of mouse at 2.5 mg/kg, ip measured after 30 mins by KEGG enrichment analysis relative to control; assay type: functional; settings: 0.5 h
[6] = Upregulation of cGMP-PKG signaling pathway related genes in hypothalamus of mouse at 2.5 mg/kg, ip measured after 30 mins by KEGG enrichment analysis relative to control; assay type: functional; settings: 0.5 h
Mus musculus [7] = experiment: Upregulation of serotonergic synapse related genes in hypothalamus of mouse at 2.5 mg/kg, ip measured after 30 mins by KEGG enrichment analysis relative to control; assay type: functional; settings: 0.5 h
[8] = Drug concentration in male mouse plasma at 10 mg/kg, ip measured after 2 hrs by LC-MS/MS analysis; assay type: ADME, organism-based
Mus musculus [9] = experiment: Upregulation of glycerolipid metabolism related genes in hypothalamus of mouse at 2.5 mg/kg, ip measured after 30 mins by KEGG enrichment analysis relative to control; assay type: functional; settings: 0.5 h
[10] = Drug concentration in male mouse plasma at 10 mg/kg, ip measured after 4 hrs by LC-MS/MS analysis; assay type: ADME, organism-based
[11] = Tmax in male Sprague-Dawley rat at 2.5 mg/kg, ip measured after 5 to 1440 mins by LC-MS/MS analysis; assay type: ADME, organism-based; settings: in vivo, time 5-1440 min
Mus musculus [12] = experiment: Upregulation of purine metabolism related genes in hypothalamus of mouse at 2.5 mg/kg, ip measured after 30 mins by KEGG enrichment analysis relative to control; assay type: functional; settings: 0.5 h
[13] = MRT (0 to infinity) in male Sprague-Dawley rat at 0.5 mg/kg, iv measured after 2 to 720 mins by LC-MS/MS analysis; assay type: ADME, organism-based; settings: in vivo, time 2-720 min
Mus musculus [14] = experiment: Upregulation of amphetamine addiction related genes in hypothalamus of mouse at 2.5 mg/kg, ip measured after 30 mins by KEGG enrichment analysis relative to control; assay type: functional; settings: 0.5 h
[15] = MRT (0 to infinity) in male Sprague-Dawley rat at 2.5 mg/kg, ip measured after 5 to 1440 mins by LC-MS/MS analysis; assay type: ADME, organism-based; settings: in vivo, time 5-1440 min
Mus musculus [16] = experiment: Upregulation of arachidonic acid metabolism related genes in hypothalamus of mouse at 2.5 mg/kg, ip measured after 30 mins by KEGG enrichment analysis relative to control; assay type: functional; settings: 0.5 h
Mus musculus [17] = experiment: Upregulation of pancreatic secretion related genes in hypothalamus of mouse at 2.5 mg/kg, ip measured after 30 mins by KEGG enrichment analysis relative to control; assay type: functional; settings: 0.5 h
[18] = Upregulation of kaposi sarcoma-associated herpesvirus infection related genes in hypothalamus of mouse at 2.5 mg/kg, ip measured after 30 mins by KEGG enrichment analysis relative to control; assay type: functional; settings: 0.5 h
[19] = AUC (0 to t) in male Sprague-Dawley rat at 0.5 mg/kg, iv measured after 2 to 720 mins by LC-MS/MS analysis; assay type: ADME, organism-based; settings: in vivo, time 2-720 min
[20] = Upregulation of MAPK signaling pathway related genes in hypothalamus of mouse at 2.5 mg/kg, ip measured after 30 mins by KEGG enrichment analysis relative to control; assay type: functional; settings: 0.5 h
Mus musculus [21] = experiment: Upregulation of parathyroid hormone synthesis related genes in hypothalamus of mouse at 2.5 mg/kg, ip measured after 30 mins by KEGG enrichment analysis relative to control; assay type: functional; settings: 0.5 h
[22] = Cmax in male Sprague-Dawley rat at 0.5 mg/kg, iv measured after 2 to 720 mins by LC-MS/MS analysis; assay type: ADME, organism-based; settings: in vivo, time 2-720 min
Mus musculus [23] = experiment: Sedative-hypnotic activity in mouse assessed as latency time of first step out of center square at 50 mg/kg, ip administrated as single dose and measured after 30 mins by open field test; assay type: functional, organism-based
[24] = Apparent volume of distribution in male Sprague-Dawley rat at 0.5 mg/kg, iv measured after 2 to 720 mins by LC-MS/MS analysis; assay type: ADME, organism-based; settings: in vivo, time 2-720 min, read-out: Vd(app)
[25] = Apparent volume of distribution in male Sprague-Dawley rat at 2.5 mg/kg, ip measured after 5 to 1440 mins by LC-MS/MS analysis; assay type: ADME, organism-based; settings: in vivo, time 5-1440 min
[26] = Ratio of drug concentration in male mouse brain to plasma at 10 mg/kg, ip measured after 1 hrs by LC-MS/MS analysis; assay type: ADME, organism-based; settings: brain and plasma, read-out: BPR
[27] = Upregulation of cAMP signaling pathway related genes in hypothalamus of mouse at 2.5 mg/kg, ip measured after 30 mins by KEGG enrichment analysis relative to control; assay type: functional; settings: 0.5 h
[28] = AUC (0 to infinity) in male Sprague-Dawley rat at 2.5 mg/kg, ip measured after 5 to 1440 mins by LC-MS/MS analysis; assay type: ADME, organism-based; settings: in vivo, time 5-1440 min
[29] = Upregulation of mTOR signaling pathway related genes in hypothalamus of mouse at 2.5 mg/kg, ip measured after 30 mins by KEGG enrichment analysis relative to control; assay type: functional; settings: 0.5 h
Mus musculus [30] = experiment: Upregulation of lipid and atherosclerosis related genes in hypothalamus of mouse at 2.5 mg/kg, ip measured after 30 mins by KEGG enrichment analysis relative to control; assay type: functional; settings: 0.5 h
Mus musculus [31] = experiment: Upregulation of gap junction related genes in hypothalamus of mouse at 2.5 mg/kg, ip measured after 30 mins by KEGG enrichment analysis relative to control; assay type: functional; settings: 0.5 h
[32] = Drug concentration in male mouse plasma at 10 mg/kg, ip measured after 1 hrs by LC-MS/MS analysis; assay type: ADME, organism-based
Mus musculus [33] = experiment: Sedative-hypnotic activity in pentobarbital-induced mouse assessed as asleep rate at 0.5 to 0.1 mg/kg, ip preadministered with compound for 20 mins followed by pentobarbital administration and measured within 15 mins (reference value: 12.5 %); assay type: functional; settings: dose 0.5-0.1 mg/kg, time <= 35 min, at 0.1 to 0.5 mg/kg
[34] = Clearance in male Sprague-Dawley rat at 0.5 mg/kg, iv measured after 2 to 720 mins by LC-MS/MS analysis; assay type: ADME, organism-based; settings: in vivo, time 2-720 min
Mus musculus [35] = experiment: Sedative-hypnotic activity in mouse assessed as increase in latency time of first step out of center square at 0.1 to 2.5 mg/kg, ip administrated as single dose and measured after 30 mins by open field test; assay type: functional, organism-based; settings: dose 0.1-2.5 mg/kg
Mus musculus [36] = experiment: Upregulation of cell cycle related genes in hypothalamus of mouse at 2.5 mg/kg, ip measured after 30 mins by KEGG enrichment analysis relative to control; assay type: functional; settings: 0.5 h
Mus musculus [37] = experiment: Upregulation of circadian entrainment related genes in hypothalamus of mouse at 2.5 mg/kg, ip measured after 30 mins by KEGG enrichment analysis relative to control; assay type: functional; settings: 0.5 h

CCn1c2ccccc2c2cc(Nc3ccnc(Nc4ccc(C)c(OC)c4)n3)ccc21
Activity [1]: 3.47%
Activity (Mus musculus [2]): Active
Activity (Mus musculus [3]): Active
Activity (Mus musculus [4]): 3.47%
Activity (Mus musculus [5]): 1.73%
Activity [6]: 2.89%
Activity (Mus musculus [7]): 4.05%
concentration at 2 h [8]: 60.4 ng/mL
Activity (Mus musculus [9]): 2.31%
concentration at 4 h [10]: 64.7 ng/mL
Tmax [11]: 4 h
Activity (Mus musculus [12]): 1.73%
MRT inf [13]: 3.47 h
Activity (Mus musculus [14]): 3.47%
MRT inf [15]: 8.16 h
Activity (Mus musculus [16]): 2.89%
Activity (Mus musculus [17]): 4.05%
Activity [18]: 4.62%
AUC(0-t) [19]: 801 ng·h/mL
Activity [20]: 6.36%
Activity (Mus musculus [21]): 4.05%
Cmax [22]: 893 ng/mL
Activity (Mus musculus [23]): Active; Significant Effect Observed
Vd [24]: 2.9 L/kg
Vd(app) [25]: 5023 mL/kg
Kp at 1 h [26]: 0.2
Activity [27]: 4.62%
AUC(0-inf) [28]: 3300 ng·h/mL
Activity [29]: 3.47%
Activity (Mus musculus [30]): 7.51%
Activity (Mus musculus [31]): 2.89%
concentration at 1 h [32]: 75 ng/mL
Activity (Mus musculus [33]): 75%
clearance [34]: 9.53 mL/min/kg
Activity (Mus musculus [35]): Active
Activity (Mus musculus [36]): 2.89%
Activity (Mus musculus [37]): 3.47%
